Measurements reported in US8344160B2, “Pyrrolone melanin concentrating hormone receptor-1 antagonists” (Bristol-Myers Squibb Company, priority 2008, dated 2013).
Counter-ions that a name gives are not always drawn.

tested on: not listed separately; assay: Assessment of in vivo MCHR activity: body weight of rats with a choice of chow and high fat/high sugar diet; parameters: species or system rat; conditions: male Sprague Dawley rats, 30 mg/kg p.o. daily day 0 through day 4, dosed as prodrug (Examples 57, 68, 66)
Experimental: Male SPRAGUE DAWLEY® (CD, Charles River Breeding Laboratory) rats weighing approximately 240 grams were place in individual plastic cages with ALPHADRI® bedding. The room was maintained at 72° F. and 50% humidity, and a 12/12 light dark cycle with lights out at 1600 hours. The rats were conditioned for 5 days prior to the start of the study to having a choice of foods. A normal chow (HARLAN TEKLAD®, 2018) that contains 18% protein, 5% fat and 73% carbohydrate and a high fat high sugar diet (Research Diets (D2327)) that contains 20% protein, 40% fat and 40% carbohydrate where the carbohydrate is entirely sucrose and the fat is soybean and coconut oil. […] Body weight and consumption of both kinds of food as well as water intake were measured daily. Water was available ad lib throughout the study. Food consumption is presented as daily caloric consumption which is the sum of grams of chow multiplied by the Kcal per gram (3.5) plus grams of high fat high sugar multiplied by Kcal per gram (4.59).
Baseline body weight was measured prior to drug treatment on day 0 of the study. Baseline food consumption was the average of the 3 days prior to the first drug treatment. Drug was administered daily p.o. at 2.0 ml/kg at 1500 hours beginning on day 0 and continuing daily through day 4 as a suspension in 0.5% methyl cellulose, 0.1% Tween 80 in water at 3.0, 10 and 30 mg/kg p.o. All data were evaluated using ANOVA and Fishers PLSD statistics.

With `COc1cc(N2Cc3cc(-c4ccc(Cl)cn4)sc3C2=O)ccc1OC[C@H](O)CS(C)(=O)=O` [Example 31] as the molecule, how does the “Weight Reduction versus Vehicle” value read?
Its value is 3.2%.

Which “Weight Reduction versus Vehicle” value does the source give for `COc1cc(N2Cc3cc(-c4ncc(Cl)cn4)sc3C2=O)ccc1OCC(C)(C)O` [Example 33] here?
The value was 4.8%.

For `COc1cc(N2Cc3cc(-c4ccc(Cl)cc4)sc3C2=O)ccc1OCC(C)(C)O` [Example 1, 2-(4-Chlorophenyl)-5-(4-(2-hydroxy-2-methylpropoxy)-3-methoxyphenyl)-4H-thieno[3,2-c]pyrrol-6(5H)-one], which “Weight Reduction versus Vehicle” value is on record?
The value was 3.9%.

biological target: T1, mutated (E4Q, A5T) hMCHR1 receptor (Homo sapiens, UniProt Q99705, A5T/E4Q); assay: Radioligand binding assay for assessment of MCHR1 activity; conditions: membranes from stably transfected HEK-293 cells; competition with [Phe13,[125I]Tyr19]-MCH
T1 construct: expressed in transfected cells; host or cells: HEK-293 (stably transfected), membrane preparation
Experimental: Radioligand Binding Assay for Assessment of MCHR1 Activity
Membranes from stably transfected HEK-293 cells expressing a mutated (E4Q, A5T) hMCHR1 receptor were prepared by dounce homogenization and differential centrifugation. Binding experiments were carried out with 0.5-1.0 ug of membrane protein incubated in a total of 0.2 ml in 25 mM HEPES (pH 7.4) with 10 mM MgCl2, 2 mM EGTA, and 0.1% BSA (Binding Buffer) for 90 min. For competition binding assays, reactions were carried out in the presence of with 0.06-0.1 nM [Phe^13, [^125I]Tyr^19]-MCH and increasing concentrations of unlabeled test molecules. Reactions were terminated by rapid vacuum filtration over 96 well-GFC UNIFILTER® plates pre-coated with 0.075 ml binding buffer containing 1% BSA, and washed 3 times with 0.4 ml of Phospho-buffered Saline (pH 7.4) containing 0.01% TX-100. Filters were dried, 0.05 ml microscint 20 was added to each well and radioactivity was subsequently quantified by scintillation counting on a TOPCOUNT® microplate scintillation counter (Packard). Inhibitory constants were determined by nonlinear least squares analysis using a four parameter logistic equation.

T1 sequence (Q99705 whole entry E4Q/A5T): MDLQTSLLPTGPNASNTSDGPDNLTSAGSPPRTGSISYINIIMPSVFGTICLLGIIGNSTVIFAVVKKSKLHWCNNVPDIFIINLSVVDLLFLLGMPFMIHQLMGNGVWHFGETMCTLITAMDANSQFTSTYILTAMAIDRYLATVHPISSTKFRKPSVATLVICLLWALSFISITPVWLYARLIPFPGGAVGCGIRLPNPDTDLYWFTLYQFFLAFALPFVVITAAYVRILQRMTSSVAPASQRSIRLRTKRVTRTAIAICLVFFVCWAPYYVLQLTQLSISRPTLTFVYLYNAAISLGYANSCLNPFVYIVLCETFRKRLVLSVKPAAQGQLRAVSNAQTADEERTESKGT

For `COc1cc(N2Cc3cc(-c4ccc(Cl)cc4)sc3C2=O)ccc1OC[C@H](O)CS(C)(=O)=O` [Example 15], which Ki is on record?
Its Ki is 0.0006 µM.

With `COc1cc(N2Cc3nc(-c4ccc(Cl)cc4)sc3C2=O)ccc1OCC(C)(C)O` [Example 52, 2-(4-Chlorophenyl)-5-(4-(2-hydroxy-2-methylpropoxy)-3-methoxyphenyl)-4H-pyrrolo[3,4-d]thiazol-6(5H)-one] as the molecule, how does the Ki read?
Its Ki is 0.068 µM.

For `COc1cc(N2Cc3cc(-c4ccccn4)sc3C2=O)ccc1OCC(C)(C)O` [Example 49, 5-(4-(2-Hydroxy-2-methylpropoxy)-3-methoxyphenyl)-2-(pyridin-2-yl)-4H-thieno[2,3-c]pyrrol-6(5H)-one, trifluoroacetic acid salt], which Ki is on record?
The Ki was 0.107 µM.

Which Ki does the source give for `CN(C)[C@@H]1CCN(c2ccc(N3Cc4cc(-c5ccc(Cl)cc5)sc4C3=O)cn2)C1` [Example 21, (R)-2-(4-Chlorophenyl)-5-(6-(3-(dimethylamino)pyrrolidin-1-yl)pyridin-3-yl)-4H-thieno[3,2-c]pyrrol-6(5H)-one] here?
Its Ki is 0.0002 µM.

Which Ki does the source give for `COc1cc(N2Cc3cc(-c4ccc(Cl)cc4)sc3C2=O)ccc1O` [Example 6] here?
Its Ki is 0.03 µM.

For `COc1cc(N2Cc3cc(-c4ncc(Cl)cn4)sc3C2=O)ccc1OCC(C)(C)OC(=O)CN` [Example 68], which Ki is on record?
The Ki was 0.0176 µM.

For “5-(4-(2-Hydroxy-2-methylpropoxy)-3-methoxyphenyl)-2-(6-methoxypyridin-3-yl)-4H-thieno[3,2-c]pyrrol-6(5H)-one, trifluoroacetic acid salt [Example 41]”, which Ki is on record?
Its Ki is 0.8 µM.

With `COc1cc(N2Cc3cc(-c4ccc(Cl)nc4)sc3C2=O)ccc1OCC(C)(C)O` [Example 44] as the molecule, how does the Ki read?
The Ki was 0.0216 µM.

With `COc1cc(N2Cc3cc(-c4ccc(Cl)cn4)sc3C2=O)ccc1OCC(O)C(F)(F)F` (stereo not drawn) [Example 27] as the molecule, how does the Ki read?
Its Ki is 0.0025 µM.

With `COc1cc(N2Cc3nc(-c4ccc(Cl)cc4)oc3C2=O)ccc1OCC(C)(C)O` [Example 53, 2-(4-Chlorophenyl)-5-(4-(2-hydroxy-2-methylpropoxy)-3-methoxyphenyl)-4H-pyrrolo[3,4-d]oxazol-6(5H)-one] as the molecule, how does the Ki read?
Its Ki is 0.248 µM.

With `COc1cc(N2Cc3cc(-c4ccncc4)sc3C2=O)ccc1OCC(C)(C)O` [Example 43] as the molecule, how does the Ki read?
The Ki was 1.29 µM.

For `COc1cc(N2Cc3cc(-c4ccc(Cl)cc4)sc3C2=O)ccc1OCCN1CCCC1` [Example 3], which Ki is on record?
The Ki was 0.0002 µM.

For `COc1cc(N2Cc3cc(-c4ccc(Cl)cc4)sc3C2=O)ccc1OC[C@H](O)C1CC1` [Example 2], which Ki is on record?
The Ki was 0.0025 µM.

For `CN[C@H]1CCN(c2ccc(N3Cc4cc(-c5ccc(Cl)cc5)sc4C3=O)cn2)C1` [Example 10], which Ki is on record?
Its Ki is 0.0003 µM.

With `COc1cc(N2Cc3cc(-c4ccc(Cl)cc4)oc3C2=O)ccc1OCC(C)(C)O` [Example 54, 2-(4-Chlorophenyl)-5-(4-(2-hydroxy-2-methylpropoxy)-3-methoxyphenyl)-4H-furo[3,2-c]pyrrol-6(5H)-one] as the molecule, how does the Ki read?
The Ki was 0.0133 µM.

With `COc1cc(N2Cc3cc(-c4ncc(Cl)cn4)sc3C2=O)ccc1OCC(C)(C)O` [Example 33] as the molecule, how does the Ki read?
Its Ki is 0.017 µM.

For `COc1cc(N2Cc3cc(-c4ccc(Cl)cc4)sc3C2=O)ccc1OCC(C)(C)O` [Example 1, 2-(4-Chlorophenyl)-5-(4-(2-hydroxy-2-methylpropoxy)-3-methoxyphenyl)-4H-thieno[3,2-c]pyrrol-6(5H)-one], which Ki is on record?
Its Ki is 0.0019 µM.

For `COc1cc(N2Cc3cc(-c4ncc(Cl)cn4)sc3C2=O)ccc1N1CCC(O)CC1` [Example 39], which Ki is on record?
The Ki was 0.0336 µM.
